The record followed here is patent publication US11358949B2, “Carbamate and urea compounds as multikinase inhibitors” (ANGEX PHARMACEUTICAL, INC., priority 2017, dated 2022).

Bounds are passed on as bounds.

In one assay the target is MEK5 (Homo sapiens, UniProt Q13163). The assay is described as follows: HotSpot Kinase Assay, MEK5.
Another assay deals with c-Kit (Homo sapiens, UniProt P10721). The assay is described as follows: HotSpot Kinase Assay, c-Kit.
In the next assay the target is SLK/STK2 (Homo sapiens, UniProt Q9H2G2). The assay is described as follows: HotSpot Kinase Assay, SLK/STK2.
A further assay concerns the target RON/MST1R (Homo sapiens, UniProt Q04912). As to the kind of experiment: HotSpot Kinase Assay, RON/MST1R.
In a further assay the target is EPHA2 (Homo sapiens, UniProt P29317). The assay is described as follows: HotSpot Kinase Assay, EPHA2.
A further assay has as its target MEK1 (Homo sapiens, UniProt Q02750). The assay is described as follows: HotSpot Kinase Assay, MEK1.
A further assay deals with FLT3 (Homo sapiens, UniProt P36888). As to the kind of experiment: HotSpot Kinase Assay, FLT3.
A further assay addresses LCK (Homo sapiens, UniProt P06239). The assay is described as follows: HotSpot Kinase Assay, LCK.
Another assay concerns the target EPHA1 (Homo sapiens, UniProt P21709). The assay is described as follows: HotSpot Kinase Assay, EPHA1.
For another assay, the target named is LOK/STK10 (Homo sapiens, UniProt O94804). The assay is described as follows: HotSpot Kinase Assay, LOK/STK10.
Another assay has as its target FMS (Homo sapiens, UniProt P07333). The assay is described as follows: HotSpot Kinase Assay, FMS.
In another assay the target is FRK/PTK5 (Homo sapiens, UniProt P42685). The assay is described as follows: HotSpot Kinase Assay, FRK/PTK5.
The target of a further assay is MNK2 (Homo sapiens, UniProt Q9HBH9). The assay is described as follows: HotSpot Kinase Assay, MNK2.
A further assay concerns the target DDR1 (Homo sapiens, UniProt Q08345). As to the kind of experiment: HotSpot Kinase Assay, DDR1.
Another assay concerns the target T1, c-MER (Homo sapiens, UniProt Q12866).
T1 sequence (Q12866 21-999): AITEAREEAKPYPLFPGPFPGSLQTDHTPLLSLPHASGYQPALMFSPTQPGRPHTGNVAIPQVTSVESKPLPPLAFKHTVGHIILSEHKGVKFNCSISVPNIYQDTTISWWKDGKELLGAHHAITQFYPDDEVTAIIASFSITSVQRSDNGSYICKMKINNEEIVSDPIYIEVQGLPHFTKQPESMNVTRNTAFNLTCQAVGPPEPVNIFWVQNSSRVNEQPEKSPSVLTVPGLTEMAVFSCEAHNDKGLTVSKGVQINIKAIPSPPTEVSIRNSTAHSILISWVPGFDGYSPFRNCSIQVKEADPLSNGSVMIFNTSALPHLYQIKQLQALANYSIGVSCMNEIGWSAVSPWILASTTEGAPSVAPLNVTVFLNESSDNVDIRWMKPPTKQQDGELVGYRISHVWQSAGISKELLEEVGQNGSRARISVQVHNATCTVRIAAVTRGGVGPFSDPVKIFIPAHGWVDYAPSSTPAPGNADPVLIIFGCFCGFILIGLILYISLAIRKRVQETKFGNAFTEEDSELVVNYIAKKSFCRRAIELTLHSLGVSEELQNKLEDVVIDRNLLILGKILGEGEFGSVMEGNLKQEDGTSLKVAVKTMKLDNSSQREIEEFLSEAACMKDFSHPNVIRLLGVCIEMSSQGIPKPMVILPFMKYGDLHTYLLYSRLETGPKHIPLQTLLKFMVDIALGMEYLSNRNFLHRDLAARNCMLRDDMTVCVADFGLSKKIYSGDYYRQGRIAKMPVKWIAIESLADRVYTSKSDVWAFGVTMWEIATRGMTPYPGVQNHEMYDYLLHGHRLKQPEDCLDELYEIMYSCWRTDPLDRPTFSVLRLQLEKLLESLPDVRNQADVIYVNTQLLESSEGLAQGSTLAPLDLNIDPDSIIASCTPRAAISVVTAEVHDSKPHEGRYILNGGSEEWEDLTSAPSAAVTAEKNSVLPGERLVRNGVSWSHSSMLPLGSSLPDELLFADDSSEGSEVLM
The assay is described as follows: HotSpot Kinase Assay, c-MER.

The next assay has as its target CDK7/cyclin H (Homo sapiens, UniProt P50613). As to the kind of experiment: HotSpot Kinase Assay, CDK7/cyclin H.
In the next assay the target is PDGFβ (Homo sapiens, UniProt P09619). As to the kind of experiment: HotSpot Kinase Assay, PDGFβ.
The target of a further assay is BLK (Homo sapiens, UniProt P51451). As to the kind of experiment: HotSpot Kinase Assay, BLK.
The target in a further assay is KHS/MAP4K5 (Homo sapiens, UniProt Q9Y4K4). As to the kind of experiment: HotSpot Kinase Assay, KHS/MAP4K5.
The next assay deals with DDR2 (Homo sapiens, UniProt Q16832). As to the kind of experiment: HotSpot Kinase Assay, DDR2.
The next assay has as its target RET (Homo sapiens, UniProt P07949). The assay is described as follows: HotSpot Kinase Assay, RET.
The target in another assay is EPHB4 (Homo sapiens, UniProt P54760). As to the kind of experiment: HotSpot Kinase Assay, EPHB4.

Sequence of KHS/MAP4K5 (Q9Y4K4 whole entry): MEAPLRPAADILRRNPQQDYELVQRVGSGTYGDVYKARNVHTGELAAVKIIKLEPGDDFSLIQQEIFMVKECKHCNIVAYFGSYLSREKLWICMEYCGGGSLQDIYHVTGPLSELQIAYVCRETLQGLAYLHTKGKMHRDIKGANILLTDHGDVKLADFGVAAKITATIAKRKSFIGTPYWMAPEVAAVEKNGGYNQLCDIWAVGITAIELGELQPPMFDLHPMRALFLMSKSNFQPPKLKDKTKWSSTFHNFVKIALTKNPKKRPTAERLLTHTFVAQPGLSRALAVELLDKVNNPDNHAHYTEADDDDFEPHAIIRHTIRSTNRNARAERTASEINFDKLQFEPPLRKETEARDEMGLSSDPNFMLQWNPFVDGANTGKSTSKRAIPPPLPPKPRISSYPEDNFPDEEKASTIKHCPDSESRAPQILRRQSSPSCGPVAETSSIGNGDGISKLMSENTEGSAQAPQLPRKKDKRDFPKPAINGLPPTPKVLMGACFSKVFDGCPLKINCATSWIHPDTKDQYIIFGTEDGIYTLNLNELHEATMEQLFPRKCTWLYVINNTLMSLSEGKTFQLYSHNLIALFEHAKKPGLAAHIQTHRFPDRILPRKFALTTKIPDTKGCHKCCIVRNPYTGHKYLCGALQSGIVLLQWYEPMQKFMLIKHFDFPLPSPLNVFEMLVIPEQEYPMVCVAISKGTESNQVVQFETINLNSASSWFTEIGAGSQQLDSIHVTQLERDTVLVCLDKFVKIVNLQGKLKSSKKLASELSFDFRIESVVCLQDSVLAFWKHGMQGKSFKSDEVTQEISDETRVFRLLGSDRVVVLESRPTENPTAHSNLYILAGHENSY
Sequence of EPHA1 (P21709 26-976): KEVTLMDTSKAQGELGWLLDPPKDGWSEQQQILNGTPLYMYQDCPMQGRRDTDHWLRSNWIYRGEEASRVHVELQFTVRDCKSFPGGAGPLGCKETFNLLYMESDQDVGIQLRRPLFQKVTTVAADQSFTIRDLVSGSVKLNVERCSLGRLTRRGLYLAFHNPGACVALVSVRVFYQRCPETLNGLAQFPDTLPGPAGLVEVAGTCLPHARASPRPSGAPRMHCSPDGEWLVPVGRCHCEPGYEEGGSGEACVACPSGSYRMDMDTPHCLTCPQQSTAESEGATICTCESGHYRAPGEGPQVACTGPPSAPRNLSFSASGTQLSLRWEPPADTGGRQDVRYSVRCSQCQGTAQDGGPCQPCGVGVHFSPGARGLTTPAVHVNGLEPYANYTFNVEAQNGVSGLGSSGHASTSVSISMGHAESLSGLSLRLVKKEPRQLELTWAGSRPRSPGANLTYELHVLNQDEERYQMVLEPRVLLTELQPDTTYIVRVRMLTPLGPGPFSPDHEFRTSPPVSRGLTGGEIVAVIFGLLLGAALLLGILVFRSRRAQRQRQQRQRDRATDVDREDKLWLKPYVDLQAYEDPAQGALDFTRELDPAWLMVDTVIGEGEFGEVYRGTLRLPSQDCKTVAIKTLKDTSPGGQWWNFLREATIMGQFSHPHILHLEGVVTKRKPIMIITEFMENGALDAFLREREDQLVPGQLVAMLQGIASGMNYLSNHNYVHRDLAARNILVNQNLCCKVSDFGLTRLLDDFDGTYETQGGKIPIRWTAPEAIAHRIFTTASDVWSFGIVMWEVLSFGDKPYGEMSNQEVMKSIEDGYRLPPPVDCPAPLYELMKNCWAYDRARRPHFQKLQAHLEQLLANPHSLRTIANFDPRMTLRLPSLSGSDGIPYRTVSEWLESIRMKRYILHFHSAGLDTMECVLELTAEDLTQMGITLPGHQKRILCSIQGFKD
Sequence of FLT3 (P36888 27-993): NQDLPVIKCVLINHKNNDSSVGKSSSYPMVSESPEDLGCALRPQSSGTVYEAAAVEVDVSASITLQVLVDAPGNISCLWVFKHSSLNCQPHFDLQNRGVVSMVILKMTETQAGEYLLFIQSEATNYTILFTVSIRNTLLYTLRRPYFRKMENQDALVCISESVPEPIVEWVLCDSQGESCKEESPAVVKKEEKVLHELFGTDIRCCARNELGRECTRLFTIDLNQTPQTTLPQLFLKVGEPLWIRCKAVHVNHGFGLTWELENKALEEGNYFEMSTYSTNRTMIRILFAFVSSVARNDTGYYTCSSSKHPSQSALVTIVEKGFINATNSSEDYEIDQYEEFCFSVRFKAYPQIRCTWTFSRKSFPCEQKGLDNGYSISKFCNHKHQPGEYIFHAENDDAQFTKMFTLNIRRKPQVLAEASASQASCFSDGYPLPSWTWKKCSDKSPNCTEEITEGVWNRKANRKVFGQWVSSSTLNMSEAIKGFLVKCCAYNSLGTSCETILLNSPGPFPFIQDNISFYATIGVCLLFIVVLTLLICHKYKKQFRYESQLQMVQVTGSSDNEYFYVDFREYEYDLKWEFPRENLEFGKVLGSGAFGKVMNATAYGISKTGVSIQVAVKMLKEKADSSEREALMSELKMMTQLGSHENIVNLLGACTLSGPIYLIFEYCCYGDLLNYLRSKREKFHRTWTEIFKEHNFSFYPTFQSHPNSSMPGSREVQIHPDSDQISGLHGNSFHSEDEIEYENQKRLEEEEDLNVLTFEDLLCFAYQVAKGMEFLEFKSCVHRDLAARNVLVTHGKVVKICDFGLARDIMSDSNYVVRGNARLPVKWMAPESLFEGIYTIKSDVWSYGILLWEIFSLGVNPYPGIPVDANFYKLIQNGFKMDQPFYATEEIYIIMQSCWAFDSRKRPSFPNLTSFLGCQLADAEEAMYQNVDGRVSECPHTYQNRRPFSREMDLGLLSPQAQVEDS
Sequence of SLK/STK2 (Q9H2G2 whole entry): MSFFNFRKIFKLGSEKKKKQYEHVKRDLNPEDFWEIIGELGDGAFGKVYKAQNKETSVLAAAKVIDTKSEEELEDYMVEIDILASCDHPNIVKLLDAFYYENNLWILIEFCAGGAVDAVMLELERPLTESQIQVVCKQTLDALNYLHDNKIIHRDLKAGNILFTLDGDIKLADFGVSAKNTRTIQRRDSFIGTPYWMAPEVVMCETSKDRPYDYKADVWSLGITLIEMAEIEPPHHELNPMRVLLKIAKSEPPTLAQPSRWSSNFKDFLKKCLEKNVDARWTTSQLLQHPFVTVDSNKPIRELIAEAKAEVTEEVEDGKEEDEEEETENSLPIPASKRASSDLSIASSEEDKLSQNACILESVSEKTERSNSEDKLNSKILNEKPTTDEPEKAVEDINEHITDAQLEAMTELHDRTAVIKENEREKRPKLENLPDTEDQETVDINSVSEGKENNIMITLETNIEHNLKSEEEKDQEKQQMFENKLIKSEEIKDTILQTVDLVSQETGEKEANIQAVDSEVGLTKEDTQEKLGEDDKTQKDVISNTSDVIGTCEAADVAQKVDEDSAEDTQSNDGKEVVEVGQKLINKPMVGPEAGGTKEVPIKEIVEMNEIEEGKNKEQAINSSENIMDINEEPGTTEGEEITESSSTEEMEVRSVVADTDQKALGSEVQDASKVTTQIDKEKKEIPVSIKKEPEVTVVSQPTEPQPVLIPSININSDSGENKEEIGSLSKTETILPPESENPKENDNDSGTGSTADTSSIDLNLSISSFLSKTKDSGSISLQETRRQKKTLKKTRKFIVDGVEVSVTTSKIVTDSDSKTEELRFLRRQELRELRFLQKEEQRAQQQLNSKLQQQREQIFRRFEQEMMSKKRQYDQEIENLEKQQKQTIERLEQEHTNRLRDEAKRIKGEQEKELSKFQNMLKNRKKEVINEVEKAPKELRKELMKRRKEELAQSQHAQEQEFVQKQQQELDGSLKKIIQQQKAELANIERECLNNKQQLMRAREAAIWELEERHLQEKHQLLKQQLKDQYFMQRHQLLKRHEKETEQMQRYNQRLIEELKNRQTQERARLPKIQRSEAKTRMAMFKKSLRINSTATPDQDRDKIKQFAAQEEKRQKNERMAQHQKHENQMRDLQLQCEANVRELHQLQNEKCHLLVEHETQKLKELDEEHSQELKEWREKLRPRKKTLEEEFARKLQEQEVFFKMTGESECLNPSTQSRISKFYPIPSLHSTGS
Sequence of DDR2 (Q16832 22-855): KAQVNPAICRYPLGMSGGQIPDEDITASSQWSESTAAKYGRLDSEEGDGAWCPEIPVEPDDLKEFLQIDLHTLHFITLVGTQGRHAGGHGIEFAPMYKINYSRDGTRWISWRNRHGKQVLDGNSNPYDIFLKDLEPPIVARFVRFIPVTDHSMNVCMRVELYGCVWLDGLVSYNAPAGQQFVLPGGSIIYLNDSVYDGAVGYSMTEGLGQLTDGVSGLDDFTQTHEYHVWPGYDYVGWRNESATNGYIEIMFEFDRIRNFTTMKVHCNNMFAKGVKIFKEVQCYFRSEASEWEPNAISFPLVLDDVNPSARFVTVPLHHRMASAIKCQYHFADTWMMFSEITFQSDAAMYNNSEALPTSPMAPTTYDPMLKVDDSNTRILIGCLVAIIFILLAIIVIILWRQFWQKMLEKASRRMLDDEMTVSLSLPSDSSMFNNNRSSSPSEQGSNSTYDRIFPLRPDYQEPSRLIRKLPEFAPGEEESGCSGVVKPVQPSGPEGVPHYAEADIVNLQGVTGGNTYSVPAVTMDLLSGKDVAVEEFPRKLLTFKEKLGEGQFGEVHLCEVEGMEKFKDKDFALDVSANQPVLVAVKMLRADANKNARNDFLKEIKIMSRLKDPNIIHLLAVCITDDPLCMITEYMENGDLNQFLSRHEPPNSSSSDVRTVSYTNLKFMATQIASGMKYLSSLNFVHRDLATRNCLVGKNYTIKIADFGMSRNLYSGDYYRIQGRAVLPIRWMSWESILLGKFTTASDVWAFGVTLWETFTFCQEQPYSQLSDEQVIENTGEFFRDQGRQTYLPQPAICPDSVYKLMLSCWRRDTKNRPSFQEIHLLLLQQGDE
Description for BLK: (§1) Specifically, for each reaction, kinase and substrate were mixed in a pH 7.5 buffer containing 20 mM HEPES, 10 mM MgCl2, 1 mM EGTA [Ethylene glycol-bis(2-aminoethylether)-N,N,N′,N′-tetraacetic acid], 0.02% Brij35, 0.02 mg/mL BSA (Bovine Serum Albumin), 0.1 mM Na3VO4, 2 mM DTT, and 1% DMSO. Compounds were then added to each reaction mixture. After a 20-min incubation, ATP (Sigma-Aldrich) and [γ-^33P] ATP (PerkinElmer) were added at a final total concentration of 100 μM. Reactions were carried out at room temperature for 2 hours and spotted onto P81 ion exchange cellulose chromatography paper (Whatman). […] The percent remaining kinase activity relative to a vehicle-containing (DMSO) kinase reaction was calculated for each kinase/inhibitor pair. […] IC50 values were calculated using Prism 5 (GraphPad).
Description for CDK7/cyclin H: as §1
Description for DDR1: as §1
Description for DDR2: as §1
Description for EPHA1: as §1
Description for EPHA2: as §1
Description for EPHB4: as §1
Description for FLT3: as §1
Description for FMS: as §1
Description for FRK/PTK5: as §1
Description for KHS/MAP4K5: as §1
Description for LCK: as §1
Description for LOK/STK10: as §1
Description for MEK1: as §1
Description for MEK5: as §1
Description for MNK2: as §1
Description for PDGFβ: as §1
Description for RET: as §1
Description for RON/MST1R: as §1
Description for SLK/STK2: as §1
Description for c-Kit: as §1
Description for c-MER: as §1

Take `COc1cc2c(Oc3ccc(NC(=O)C4(C(=O)Nc5ccc(F)cc5)CC4)cc3)ccnc2cc1OC(=O)N1CCN(C)CC1` [Compound 1-10]: the IC50 is above 1000 nM against MEK5; below 100 nM at c-Kit; above 1000 nM at SLK/STK2; above 1000 nM at RON/MST1R; below 100 nM at EPHA2; above 1000 nM against MEK1. In addition, the IC50 was below 100 nM at FLT3; 100 to 1000 nM against LCK; above 1000 nM against EPHA1; 100 to 1000 nM against LOK/STK10; below 100 nM on FMS; above 1000 nM on FRK/PTK5. Besides, the IC50 was 100 to 1000 nM against MNK2; below 100 nM against DDR1; below 100 nM against c-MER; above 1000 nM on CDK7/cyclin H; 100 to 1000 nM against PDGFβ; above 1000 nM at BLK. The half-maximal inhibitory concentration (IC50) is above 1000 nM against KHS/MAP4K5, below 100 nM on DDR2, 100 to 1000 nM against RET and 100 to 1000 nM at EPHB4.
